Data as given in patent US20250011798A1, “[…] PRODUCTION” (ModernaTX, Inc., priority 2021, published 2025).

Columns and labels:
[1] = tested on: tolC mutant strain (tolC::amber, Strain 4); assay: Toxin sensitivity of the tolC::amber mutant strain; assay type: cell-based, E. coli; details: low concentrations; irrespective of the growth media
Description: The TAG amber mutation was introduced into the tolC ORF a plasmid DNA production strain, Strain 4 (FIG. 2). TolC is the major outer membrane efflux pump component of E. coli. It is not an essential gene, but it is necessary for the efflux of many toxins, and a tolC knockout is lethal at elevated levels. The tolC mutant strain generated by the tolC::amber mutation was therefore hypersensitive to many toxins, such as low concentrations of nalidixic acid, irrespective of the growth media. While a tolC mutant has hypersensitivity to toxins, it can be cultured normally in rich media such as LB or Terrific Broth, which allows for the generation of competent cells that may be used for DNA synthesis in production.

[2] = tested on: E. coli strains tolC::K3_amber (K3) and tolC::H342_amber (H342); assay: Growth of transformed tolC::amber E. coli strains over 24 hours in media containing kanamycin or deoxycholate; assay type: cell-based; details: K3 and H342 strains with control luciferase plasmid, TBAF++ media containing deoxycholate (DOC 150), 37° C., FIGS. 3C-3D
Experimental: It was evaluated whether plasmid-borne expression of a mutant tRNA with an anticodon that is complementary to the tolC amber mutation would allow for expression of full-length TolC protein, and therefore allow the strain to grow in the presence of an otherwise lethal concentration of nalidixic acid (FIG. 2). In this case, a histidine tRNA, hisR, was modified with an anticodon loop that is complementary to the tolC amber STOP codon, UAG on RNA, which is encoded by TAG on DNA. Mutant E. coli strains were generated by introducing either a tolC::K3_amber (referred to as “K3”) or tolC::H342_amber (referred to as “H342”) amber mutation into the genome (FIG. 3A). Introduction of a STOP codon at an early codon of the open reading frame prevents the translation of non-functional TolC peptides with intact leader sequences, which would otherwise be translocated across the inner cell membrane into the periplasmic space or outer membrane. Each strain also contained codon-optimized tolC coding sequences. Both strains were transformed with a plasmid encoding either i) an amber suppressor tRNA that carries histidine (hisR), or ii) luciferase, as a control plasmid. Both plasmids carried a kanamycin-resistance marker to allow for plasmid maintenance during growth. […]

Compound	Sensitivity of the tolC mutant strain to the toxin [1]	Effect on growth of strains not expressing the HisR tRNA [2]
CCn1cc(C(=O)O)c(=O)c2ccc(C)nc21 [nalidixic acid]	hypersensitive	–
deoxycholate [DOC 150]	–	lethal
